Data set [1] deals with HeLa S-3 cells. The data set can be described thus: Inhibition of cell growth (SRB), HeLa cells. The data set is classed as cell-based, human. Particulars: 2 days of treatment, sulforhodamine B, replicate experiments listed singly. The method, then:
D. Measuring the Inhibition of Cell Growth
Growth inhibition (GI50) values were measured with HeLa S-3 cells selected for growth on plastic. […] One day later, a control plate was fixed by addition of TCA to 5%. After five rinses with tap water the plate was air dried and stored at 4° C. Test compounds were added to the remaining plates at 10-fold dilutions between 0.01 and 100 μM. Two days later all plates were fixed as described above. Cells were then stained by the addition of 100 μl per well of 0.4% sulforhodamine B (SRB) in 1% acetic acid for 30 min at 4° C. Wells were then quickly rinsed 5× with acetic acid (1%) and allowed to air dry. The SRB was then solubilized by the addition of 100 μl per well of unbuffered 10 mM Tris base. Dye was quantified by measuring absorbance at 490 nm on a Molecular Devices kinetic microplate reader. Growth at each inhibitor concentration relative to the untreated control was calculated according to the following equation: percent growth=100×(T−To)/(C−To), where T was the average optical density (OD) of the test wells after 2 days of treatment, To was the average OD of the wells in the control plate on day 0 and C was the average OD of untreated wells. Plots of percent growth versus inhibitor concentration were used to determine the GI50.

Data set [2] relates to Tumor Cells in Hollow Fibers. Put plainly: NCI Hollow Fiber Assay. The data set is classed as in vivo.
Data set [3] relates to implanted tumors. The data set can be described thus: Efficacy study, implanted tumors. The data set is classed as in vivo, athymic mice. Particulars: IP. The method, then:
The efficacy study consists of three compound-treated groups (six mice/group), a positive control-treated group (six mice), and a vehicle-treated control group of 12 mice. Test compounds were administered IP under the treatment schedules listed above (qd×14 or q4d×3), whereas the positive control agent (Taxol) was administered intravenously (IV) at a dosage level of 15 mg/kg/dose for five consecutive days (qd×5). All agents were administered on the basis of individual animal body weight. Treatment began when the implanted tumors were approximately 100 mg in size (range of 65 to 200 mg). The mice were observed daily for survival. Each tumor was measured by caliper in two dimensions and converted to tumor mass using the formula for a prolate ellipsoid (a×b^2/2) and assuming unit density. Tumor measurements and animal body weights were recorded twice weekly. Antitumor activity was assessed by the delay in tumor growth of the treated groups in comparison to the vehicle-treated control group, partial and complete regressions, and tumor-free survivors.

Several values for one entry are separate records, joined by “and”; a condition that tells them apart may be missing. Equal values may be shown once. Some results are limits rather than exact numbers.

The compound `CC(C)n1cnc2c(NCc3ccc(-c4ccccc4)cc3)nc(N[C@H]3CCCC[C@H]3NC(=O)Nc3ccccc3)nc21` [Compound 80] registered a GI50 in data set [1] of over 100000 nM.
As for `CC(=O)N[C@H]1CCCC[C@@H]1Nc1nc(NCc2ccc(-c3ccccc3)cc2)c2ncn(C(C)C)c2n1` [Compound 60], halving of growth in data set [1] (GI50) required 6000 nM.
For the compound `CC(C)n1cnc2c(NCc3ccc(-c4ccc(F)c(Cl)c4)cc3)nc(N[C@H]3CC[C@H](N)CC3)nc21` [Compound 14], the GI50 in data set [1] turned out to be 400 nM.
In data set [1], `CC(C)n1cnc2c(NCc3ccc(-c4ccoc4)cc3)nc(N[C@H]3CC[C@H](N)CC3)nc21` [Compound 164] yielded a GI50 of 100 nM.
In data set [1], `CC(=O)N[C@H]1CC[C@H](Nc2nc(NCc3ccc(-c4cc(C)cc(C)c4)cc3)c3ncn(C(C)C)c3n2)CC1` [Compound 150] returned a GI50 of 200 nM.
In turn, `CC(=O)N[C@H]1CC[C@H](Nc2nc(NCc3ccc(-c4ccc(C)s4)cc3)c3ncn(C(C)C)c3n2)CC1` [Compound 158] showed a melting point of 225 to 230 °C. This compound had a 50% growth inhibitory concentration (GI50) in data set [1] of 400 nM.
`Cc1csc(-c2ccc(CNc3nc(N[C@H]4CC[C@H](N)CC4)nc4c3ncn4C(C)C)cc2)c1` [Compound 160]: the GI50 in data set [1] came out at 300 nM.
`CC(C)n1cnc2c(NCc3ccc(-c4cccs4)cc3)nc(N[C@H]3CC[C@H](N)CC3)nc21` [Compound 111] came in with a melting point of 109 to 110 °C.
`CC(C)n1cnc2c(NCc3ccc(-c4cccnc4)cc3)nc(N[C@H]3CC[C@H](N)CC3)nc21` [Compound 103]: the “Cell Types Killed” value in data set [2] was “OVCAR 3, OVCAR 5,”. The concentration for 50% growth inhibition (GI50) in data set [1] was 30 nM and 8 nM and 20 nM and 10 nM.
Regarding `CC(=O)N[C@H]1CC[C@H](Nc2nc(NCc3ccc(-c4cccc(F)c4)cc3)c3ncn(C(C)C)c3n2)CC1` [Compound 96], the 50% growth inhibitory concentration (GI50) in data set [1] is 40 nM and 10 nM.
In the case of `CC(C)n1cnc2c(NCc3cccnc3)nc(N[C@@H]3CCCC[C@@H]3N)nc21` [Compound 126, reference compound], in data set [1], the GI50 was 2000 nM and 4000 nM and 6000 nM.
In the case of `CCCN[C@H]1CC[C@H](Nc2nc(NCc3ccc(-c4cc(C)cs4)cc3)c3ncn(C(C)C)c3n2)CC1` [Compound 162], it took 300 nM to inhibit growth in data set [1] by half (GI50).
As to `CC(=O)NCCCNc1nc(NCc2ccc(-c3ccccc3)cc2)c2ncn(C(C)C)c2n1` [Compound 212], in data set [1], the concentration for 50% growth inhibition (GI50) amounted to 3000 nM.
Take `CC(C)n1cnc2c(NCc3ccc(-c4ccsc4)cc3)nc(N[C@H]3CC[C@H](N)CC3)nc21` [Compound 12]: the T-C in data set [3] (0.27 mg/kg, q4d × 3) worked out at 1.2 days; in data set [3] (0.4 mg/kg, q4d × 3) it was 0.2 days; in data set [3] (0.6 mg/kg, q4d × 3) it was 0.3 days.
`CC(=O)N[C@@H](C)CNc1nc(NCc2ccc(-c3ccccc3)cc2)c2ncn(C(C)C)c2n1` [Compound 108] had a concentration for 50% growth inhibition (GI50) in data set [1] of 5000 nM.
Same read-out and setting: the result for `CCCNCCCCNc1nc(NCc2ccc(-c3ccccc3)cc2)c2ncn(C(C)C)c2n1` [Compound 215] reads 3000 nM.
`CC(=O)N[C@H]1CC[C@H](Nc2nc(NCc3ccc(-c4ccoc4)cc3)c3ncn(C(C)C)c3n2)CC1` [Compound 165] had a melting point of 241 to 243 °C.
Turning to `CC[C@H](CO)Nc1nc(NCc2ccc(-c3ccccn3)cc2)c2ncn(C(C)C)c2n1` [Compound 17], the 50% growth inhibitory concentration (GI50) in data set [1] was 600 nM and 300 nM.
As for `CC(=O)N[C@H]1CC[C@H](Nc2nc(NCc3ccc(-c4ccccc4)nc3)c3ncn(C(C)C)c3n2)CC1` [Compound 87], in data set [3] (10 mg/kg, q4d × 3), the T-C was 2.9 days and the Tumor free/total is 0/6. In data set [3] (15 mg/kg, q4d × 3), the T-C was 2.5 days and the Tumor free/total is given as 0/6.
In turn, `CC(=O)N[C@H]1CC[C@H](Nc2nc(NCc3ccc(-c4cc(C)cs4)cc3)c3ncn(C(C)C)c3n2)CC1` [Compound 161] displayed a melting point of 222 to 223 °C. Besides, halving of growth in data set [1] (GI50) required 400 nM.
For the compound `CC[C@H](CO)Nc1nc(NCc2ccc(-c3ccc(OC)cc3)cc2)c2ncn(C(C)C)c2n1` [Compound 43], halving of growth in data set [1] (GI50) required 8000 nM.
Turning to `CC(=O)N[C@H]1CC[C@H](Nc2nc(NCc3ccc(-c4cccc(CN)c4)cc3)c3ncn(C(C)C)c3n2)CC1` [Compound 223], the GI50 in data set [1] was 40 nM and 100 nM.
For the compound `CC(C)n1cnc2c(NCc3ccc(-c4ccccn4)cc3)nc(N[C@H]3CC[C@H](N)CC3)nc21` [Compound 78], the T-C in data set [3] (0.33 mg/kg, qd × 14) came out at 1.8 days; in data set [3] (0.5 mg/kg, qd × 14), 0.8 days; in data set [3] (1.0 mg/kg, q4d × 3), 1.1 days. In addition, the Tumor free/total in data set [3] (0.33 mg/kg, qd × 14) was 0/6; in data set [3] (0.5 mg/kg, qd × 14), 0/6; in data set [3] (1.0 mg/kg, q4d × 3) it was 0/6.
For `C=Cc1ccc(-c2ccc(CNc3nc(N[C@H](CC)CO)nc4c3ncn4C(C)C)cc2)cc1` [Compound 33], the GI50 in data set [1] was 1000 nM and 2000 nM and 900 nM.
On to `Cn1cnc2c(NCc3ccc(-c4ccccc4)cc3)nc(N[C@H]3CC[C@H](N)CC3)nc21` [Compound 139], for which the melting point was in the range of 182 to 184 °C.
For the compound `CC(=O)N[C@H]1CC[C@H](Nc2nc(NCc3ccc(-c4ccccn4)nc3)c3ncn(C(C)C)c3n2)CC1` [Compound 94], in data set [2], the “Cell Types Killed” value is “COLO205, OVCAR-3, H522”. The compound also yielded a concentration for 50% growth inhibition (GI50) in data set [1] of 70 nM.
Regarding `CC[C@H](CO)Nc1nc(NCc2ccc(-c3cccnc3)cc2)c2ncn(C(C)C)c2n1` [Compound 25], the concentration for 50% growth inhibition (GI50) in data set [1] is 2000 nM and 400 nM and > 1000 nM.
`CC[C@H](CO)Nc1nc(NCc2ccc(-c3cccc(NC(C)=O)c3)cc2)c2ncn(C(C)C)c2n1` [Compound 5] yielded a GI50 in data set [1] of over 10000 nM.
Still for that read-out and setting: the figure for `CC(=O)N[C@H]1CC[C@H](Nc2nc(NCc3ccc(-c4cccc(Cl)c4)cc3)c3ncn(C(C)C)c3n2)CC1` [Compound 110] is 30 nM and 10 nM.
In data set [1], `CC[C@H](CO)Nc1nc(NCc2ccc(-c3ccc(C(O)CO)cc3)cc2)c2ncn(C(C)C)c2n1` (some centres unmarked) [Compound 34] returned a GI50 of 6000 nM.
Regarding `CC(C)n1cnc2c(NCc3ccc(-c4ccccn4)nc3)nc(N[C@H]3CC[C@H](N)CC3)nc21` [Compound 93], halving of growth in data set [1] (GI50) required 80 nM.
For `CCCN(CCC)CCNc1nc(NCc2ccc(-c3ccccc3)cc2)c2ncn(C(C)C)c2n1` [Compound 210], in data set [1], it took 4000 nM to inhibit growth by half (GI50).
In data set [1], `CC(C)n1cnc2c(NCc3ccc(-c4ccccc4)nc3)nc(N[C@H]3CC[C@H](N)CC3)nc21` [Compound 86] gave a 50% growth inhibitory concentration (GI50) of 30 nM.

The GI50 is the concentration at which growth is held to half of that of the control. Read a high GI50 as lower sensitivity of the cells. By melting point is commonly meant the temperature of the solid-liquid transition.

The record behind these values is patent US6969720B2, “Biaryl substituted purine derivatives as potent antiproliferative agents” (AMR Technology, Inc., priority 1999, dated 2005).
